# Where a SMILES comes first, the peptide text is derived from it. Where no end group is shown, it is not given here.
# Legend:
# S. enteritidis ATCC1891 = settings: ATCC1891, 18 h
# E. coli CR-3 = settings: CR-3, 18 h
# E. coli CE-273 = settings: CE-273, 18 h
# B. subtilis IFO13722 = settings: IFO13722, 18 h
# E. coli JCM1649 = settings: JCM1649, 18 h
# B. sereus IFO3457 = settings: 18 h
# S. aureus JCM2413 = settings: JCM2413, 18 h
# S. aureus IFO13276 = settings: IFO13276, 18 h
# S. enteritidis ATC14028 = settings: ATC14028, 18 h
# erythrocytes = settings: red cells of human, 100 μM
Compound,MIC (S. enteritidis ATCC1891) [µM],MIC (E. coli CR-3) [µM],MIC (E. coli CE-273) [µM],MIC (B. subtilis IFO13722) [µM],MIC (E. coli JCM1649) [µM],MIC (B. sereus IFO3457) [µM],MIC (S. aureus JCM2413) [µM],MIC (S. aureus IFO13276) [µM],MIC (S. enteritidis ATC14028) [µM],Hemolytic property (relative value) (erythrocytes) [%]
"KVLINWKGIAAMAKKII [KVL-mastX, KVL INWKGIAAMAKKII]",100,50,25,25,100,>200,50,>200,>200,–
"ALRALRALRALRALR [ALR5, ALRALRALRALRALR]",100,–,100,25,100,100,200,400,–,–
KNWKGIAGMAKKLLGKNWKLM-NH2 [mast21N],6.3,3.1,3.1,3.1,3.1,3.1,12.5,12.5,6.3,13
CC(C)C[C@H](NC(=O)[C@@H](NC(=O)[C@@H](N)CCCNC(=N)N)C(C)C)C(=O)O [RVL] (H-Arg-Val-Leu-OH),>800,800,>800,>800,>800,>800,>800,>800,800,–
"KVLKVLKVL [KVL3, KVLKVLKVL]",>200,>200,>200,>200,>200,>200,>200,>200,>200,–
"KVLALRL [KVL+, KVL ALRL]",>200,>200,3.1,>200,>200,>200,>200,>200,>200,–
"RLAWG [Ribo-1, RLAWG]",>800,800,>800,>800,>800,>800,800,>800,800,–

# Source: patent US20040072992A1, “Novel peptide capable of specifically acting on biological membrane” (priority 2002, published 2004)
